The record followed here is patent publication US12257247B2 (Monte Rosa Therapeutics AG, priority 2023, dated 2025).

The experiment concerns the target T1, VAV1 (Homo sapiens, UniProt P15498+Q96SW2).
T1 construct: A heterozygous VAV1 C-terminal HiBiT knock-in pool was generated at Monte Rosa Therapeutics from a clonal Jurkat cell; endogenous in cells; host or cells: Jurkat clone stably expressing LgBiT, homozygous GSPT1-G575N; heterozygous VAV1-HiBiT knock-in pool
Description: VAV1 degradation activity, VAV1-HiBiT knock-in Jurkat luminescence assay (Example A, Table 1). Type of experiment: cell-based. Conditions: VAV1-HiBiT knock-in Jurkat cells; for Dmax: Jurkat. The protocol:
Cells were plated at 10,000 cells per well using Multiflo (BioTek) or Multi Drop Combi (Thermo Fisher) in 384-well white solid bottom plates (Corning, 3570BC) in 25 ul volume in RPMI 1640 media (Thermo Fischer, 22400105) containing 10% FBS (Corning, 35-075-CV), 1% Penicillin/Streptomycin (ThermoFisher Scientific, 15140-122), and 1% Endurazine (Nano-Glo Endurazine Live Cell Substrate (Promega, N2571)). Cells were incubated for ˜16 hours at 37° C., 5% CO2. 25 nL of a compound at 10 μM were dosed into the plate using an Echo® 650 liquid handler (Labcyte). Cells were incubated at 37° C., 5% CO2 and signal was read at 6 and 24 hours after compound addition on a Pherastar FSX using “LUM plus” optic module.
Analysis was performed in Scinamic (Scinamic, Cambridge, MA). Luminescence response (R) was calculated by the formula: response=100*(S−N)/(P−N) where S is the signal of the well, N and P the mean negative and positive control values respectively of the same plate. The luminescence response was then fitted in Scinamic using a 3-parameter agonist logistic fit (hillslope=1, EC50>0, top/bottom unconstrained).

[1] abbreviates: luminescence read at 6 and 24 hours after compound addition, read-out: VAV1 Dmax %.
The mark [2] stands for this setting: luminescence read at 6 and 24 hours after compound addition, read-out: VAV1 Dmax %, class.
[3] abbreviates: luminescence read at 6 and 24 hours after compound addition, read-out: VAV1 DC50.
[4] abbreviates: luminescence read at 6 and 24 hours after compound addition, read-out: VAV1 DC50 (nM), class.
Setting [5] is: luminescence read at 6 and 24 hours, read-out: VAV1 Dmax %.
[6] abbreviates: luminescence read at 6 and 24 hours, read-out: VAV1 Dmax %, class.
Setting [7] is: luminescence read at 6 and 24 hours, read-out: VAV1 DC50.
[8] abbreviates: luminescence read at 6 and 24 hours, read-out: VAV1 DC50 (nM), class.

Like-named read-outs stand apart in the source and are kept apart here.

What is called Dmax is the greatest extent of degradation seen. In general, DC50 refers to the midpoint of the concentration-degradation curve. For the molecule `O=C1CCC(c2cccc(-c3ccc4c(c3)OCCN4)c2Cl)C(=O)N1` (stereo not shown) [Compound 487, 3-(2-chloro-3-(3,4-dihydro-2H-benzo[b][1,4]oxazin-7-yl)phenyl)piperidine-2,6-dione], the Dmax under setting [1] amounted to 82.8% and the Dmax under setting [2] lay in the range of 60 to 90%. Also, the 50% degradation concentration (DC50) under setting [3] is 23.7 nM and the DC50 under setting [4] was ≤ 100 nM.

Regarding `Cc1cc(-c2cccc(C3CCC(=O)NC3=O)c2Cl)ccc1N` (stereo not shown) [Compound 131], the Dmax reads like this: under setting [5], 94.9%; under setting [6], > 90%. The 50% degradation concentration (DC50) was 7.27 nM under setting [7] and ≤ 100 nM under setting [8].

For the molecule `O=C1CCC(c2cccc(-c3ccc(N4CCC(Cn5ccccc5=O)CC4)cc3)c2Cl)C(=O)N1` (stereo not shown) [Compound 166, 3-(2-chloro-4′-(4-((2-oxopyridin-1(2H)-yl)methyl)piperidin-1-yl)-[1,1′-biphenyl]-3-yl)piperidine-2,6-dione], the Dmax is 61.5% under setting [5] and 60 to 90% under setting [6]. Besides, the DC50 was 517 nM under setting [7] and 100 to 1000 nM under setting [8].

For the molecule `O=C1CCC(c2cccc(-c3ccc(CN4CC5CC5C4=O)cc3)c2Cl)C(=O)N1` (stereo not shown) [Compound 291], the Dmax was 93.1% under setting [5] and > 90% under setting [6]. The DC50 under setting [7] came to 21.3 nM and the DC50 under setting [8] is ≤ 100 nM.

As to `O=C1CCC(c2cccc(-c3ccc(CN4Cc5cnccc5C4=O)cc3)c2Cl)C(=O)N1` (stereo not shown) [Compound 300], the Dmax was 94.3% under setting [5] and > 90% under setting [6]. In addition, the DC50 was 17.1 nM under setting [7] and ≤ 100 nM under setting [8].

As to `O=C1CCC(c2cccc(-c3ccc(Cn4ccc(C(F)(F)F)cc4=O)cc3)c2Cl)C(=O)N1` (stereo not shown) [Compound 171, 3-(2-chloro-4′-((2-oxo-4-(trifluoromethyl)pyridin-1(2H)-yl)methyl)-[1,1′-biphenyl]-3-yl)piperidine-2,6-dione], the Dmax was 94.9% under setting [5] and > 90% under setting [6]. Moreover, the DC50 is 93.8 nM under setting [7] and ≤ 100 nM under setting [8].

As for `CN1Cc2cc(-c3cccc(C4CCC(=O)NC4=O)c3Cl)ccc2N(Cc2ccn(C)n2)C1=O` (stereo not shown) [Compound 503, 3-(2-chloro-3-(3-methyl-1-((1-methyl-1H-pyrazol-3-yl)methyl)-2-oxo-1,2,3,4-tetrahydroquinazolin-6-yl)phenyl)piperidine-2,6-dione], the Dmax runs as follows: under setting [1], 90%; under setting [2], 60 to 90%. The DC50 by setting is: under setting [3], 4.73 nM; under setting [4], ≤ 100 nM.

For the molecule `Cn1ccc(COc2ccc(-c3cccc([C@H]4CCC(=O)NC4=O)c3Cl)cc2)n1` [Compound 213, (R)-3-(2-chloro-4′-((1-methyl-1H-pyrazol-3-yl)methoxy)-[1,1′-biphenyl]-3-yl)piperidine-2,6-dione], the greatest degradation seen (Dmax) under setting [5] was found to be 92% and the Dmax under setting [6] was > 90%. Also, the DC50 under setting [7] was determined as 101 nM and the DC50 under setting [8] fell in the range of 100 to 1000 nM.

Take `O=C1CCC(c2cccc(-c3ccc(N4C(=O)OCCC4C(F)(F)F)cc3)c2Cl)C(=O)N1` (stereo not shown) [Compound 305]: the Dmax was 93% under setting [5] and > 90% under setting [6]. Also, the DC50 was 19.6 nM under setting [7] and ≤ 100 nM under setting [8].

For `Cn1ccc(C(=O)Nc2ccc(-c3cccc(C4CCC(=O)NC4=O)c3Cl)cc2)n1` (stereo not shown) [Compound 207, N-[4-[2-chloro-3-(2,6-dioxo-3-piperidyl)phenyl]phenyl]-1-methyl-pyrazole-3-carboxamide], the Dmax is, setting by setting: under setting [5], 88.7%; under setting [6], 60 to 90%. Besides, the DC50 under setting [7] turned out to be 34.7 nM and the DC50 under setting [8] was ≤ 100 nM.

For the molecule `O=C1CCC(c2cccc(-c3ccc(Cc4ccco4)cc3)c2Cl)C(=O)N1` (stereo not shown) [Compound 373, 3-(2-chloro-4′-(furan-2-ylmethyl)-[1,1′-biphenyl]-3-yl)piperidine-2,6-dione], the Dmax under setting [5] was 97.2% and the Dmax under setting [6] is > 90%. The DC50 under setting [7] is 25.6 nM and the DC50 under setting [8] is ≤ 100 nM.

Consider `Cc1cc(C)n(Cc2ccc(-c3cccc(C4CCC(=O)NC4=O)c3Cl)cc2)n1` (stereo not shown) [Compound 127], for which the Dmax reads like this: under setting [5], 92.4%; under setting [6], > 90%. The DC50 runs as follows: under setting [7], 39 nM; under setting [8], ≤ 100 nM.

Take `O=C1CCC(c2cccc(-c3ccc4c(c3)CC(=O)N4Cc3ncccn3)c2Cl)C(=O)N1` (stereo not shown) [Compound 393, 3-(2-chloro-3-(2-oxo-1-(pyrimidin-2-ylmethyl)indolin-5-yl)phenyl)piperidine-2,6-dione]: the Dmax is, setting by setting: under setting [5], 86.7%; under setting [6], 60 to 90%. The 50% degradation concentration (DC50) was 29.3 nM under setting [7] and ≤ 100 nM under setting [8].

`O=C1CCC(c2cccc(-c3ccc(CN4Cc5ncccc5C4=O)cc3)c2Cl)C(=O)N1` (stereo not shown) [Compound 298]: the Dmax by setting is: under setting [5], 95.4%; under setting [6], > 90%. The DC50 was 11.7 nM under setting [7] and ≤ 100 nM under setting [8].

In the case of `O=C1CCC(c2cccc(-c3cccc(CC4CCC(F)C(=O)N4)c3)c2Cl)C(=O)N1` (stereo not shown) [Compound 270], the Dmax is, setting by setting: under setting [5], 89.6%; under setting [6], 60 to 90%. Moreover, the DC50 was 31.3 nM under setting [7] and ≤ 100 nM under setting [8].

Turning to `O=C1CCC(c2cccc(-c3ccc(CN4CCCCC4=O)cc3)c2Cl)C(=O)N1` (stereo not shown) [Compound 168, 3-(2-chloro-4′-((2-oxopiperidin-1-yl)methyl)-[1,1′-biphenyl]-3-yl)piperidine-2,6-dione], the Dmax runs as follows: under setting [5], 91.5%; under setting [6], > 90%. For the same molecule, the DC50 under setting [7] was 18.8 nM and the DC50 under setting [8] was ≤ 100 nM.

Regarding `O=C1CCC(c2cccc(-c3ccc(Cc4nccc(C(F)(F)F)n4)cc3)c2Cl)C(=O)N1` (stereo not shown) [Compound 347, 3-(2-chloro-4′-((4-(trifluoromethyl)pyrimidin-2-yl)methyl)-[1,1′-biphenyl]-3-yl)piperidine-2,6-dione], the Dmax was 96.4% under setting [5] and > 90% under setting [6]. In addition, the DC50 is, setting by setting: under setting [7], 17.1 nM; under setting [8], ≤ 100 nM.

As for `COCCCOc1ccc(-c2cccc(C3CCC(=O)NC3=O)c2Cl)cc1` (stereo not shown) [Compound 126], the Dmax under setting [5] came to 91.4% and the Dmax under setting [6] is > 90%. Also, the DC50 reads like this: under setting [7], 127 nM; under setting [8], 100 to 1000 nM.

As to `O=C1CCC(c2cccc(-c3ccc(N4Cc5ccccc5C4=O)cc3)c2Cl)C(=O)N1` (stereo not shown) [Compound 456, 3-(2-chloro-4′-(1-oxoisoindolin-2-yl)-[1,1′-biphenyl]-3-yl)piperidine-2,6-dione], the Dmax runs as follows: under setting [5], 61%; under setting [6], 60 to 90%. Besides, the DC50 by setting is: under setting [7], 1560 nM; under setting [8], > 1000 nM.

In the case of `O=C1CCC(c2cccc(-c3ccc(N4CC5CC5CC4=O)cc3)c2Cl)C(=O)N1` (stereo not shown) [Compound 307], the Dmax reads like this: under setting [5], 96%; under setting [6], > 90%. Besides, the DC50 is, setting by setting: under setting [7], 9.64 nM; under setting [8], ≤ 100 nM.

As for `O=C1CCC(c2cccc(-c3ccc(N4C(=O)CCCC45COC5)cc3)c2Cl)C(=O)N1` (stereo not shown) [Compound 407, 3-(2-chloro-4′-(6-oxo-2-oxa-5-azaspiro[3.5]nonan-5-yl)-[1,1′-biphenyl]-3-yl)piperidine-2,6-dione], the Dmax is 95.5% under setting [5] and > 90% under setting [6]. The DC50 is 6.17 nM under setting [7] and ≤ 100 nM under setting [8].

In the case of `O=C1CCC(c2cccc(-c3ccc4cc[nH]c4c3)c2Cl)C(=O)N1` (stereo not shown) [Compound 483, 3-(2-chloro-3-(1H-indol-6-yl)phenyl)piperidine-2,6-dione], the greatest degradation seen (Dmax) under setting [1] amounted to 88.1% and the Dmax under setting [2] is 60 to 90%. For the same molecule, the DC50 is 59.9 nM under setting [3] and ≤ 100 nM under setting [4].

Take `O=C1CCC(c2cccc(-c3ccc(N4C(=O)CCCC4C(F)(F)F)cc3)c2Cl)C(=O)N1` (stereo not shown) [Compound 244, 3-(2-chloro-4′-(2-oxo-6-(trifluoromethyl)piperidin-1-yl)-[1,1′-biphenyl]-3-yl)piperidine-2,6-dione]: the maximal degradation (Dmax) reads like this: under setting [5], 96.5%; under setting [6], > 90%. Further, the DC50 is 8.36 nM under setting [7] and ≤ 100 nM under setting [8].

In the case of `CC1(C)CCN(Cc2ccc(-c3cccc(C4CCC(=O)NC4=O)c3Cl)cc2)C(=O)C1` (stereo not shown) [Compound 285], the greatest degradation seen (Dmax) under setting [5] was determined as 95.2% and the Dmax under setting [6] is > 90%. The DC50 is, setting by setting: under setting [7], 10.2 nM; under setting [8], ≤ 100 nM.

`O=C1CCC(c2cccc(-c3ccc(CC4COC4)cc3)c2Cl)C(=O)N1` (stereo not shown) [Compound 233, 3-(2-chloro-4′-(oxetan-3-ylmethyl)-[1,1′-biphenyl]-3-yl)piperidine-2,6-dione]: the greatest degradation seen (Dmax) under setting [5] was 92% and the Dmax under setting [6] is > 90%. In addition, the DC50 is 16.1 nM under setting [7] and ≤ 100 nM under setting [8].
